The text below walks through data of US6562837B1, “Use of tetrahydroisoquinoline compounds for the treatment of septicemia” (Korea Institute of Science & Technology, priority 1998, dated 2003).

Molecules are shown by their SMILES.

A short description of data set [1]: Toxicity experiment, 50% lethal dose (LD50). As to conditions: in vivo, ip; intraperitoneally injected.
The next data set concerns Rat thoracic aorta. The data set can be described thus: Relaxation of phenylephrine-contracted isolated rat thoracic aorta. The format is cell-based.
In the next data set the test system is LPS-induced DIC and MOF. The data set can be described thus: Indices for bacterial endotoxin (LPS)-induced DIC and MOF in rats. The format is in vivo. As to conditions: 10 mg/kg and 50 mg/kg orally, vs control given LPS (20 mg/kg) only; for number of platelets in blood: FIG. 3; for prothrombin time (PT): FIG. 4; for activated partial thromboplastin time (aPTT): FIG. 5; for fibrinogen level in blood: FIG. 6; for FDP level in blood: FIG. 7; for S-GOT level in blood: FIG. 8; for S-GPT level in blood: FIG. 9; for BUN level in blood: FIG. 10. On the procedure: Rats (Sprague-Dawley, 250±50 g) were anesthetized with ketamine (250 mg/kg) by injection (i.m.). 30 min later, LPS (20 mg/kg) was infused into the tail vein of the rats over a 3 hour period. Thereafter, blood was harvested from the artery and measured for platelet number, PT, aPTT, fibrinogen level, FDP level, and the levels of S-GOT, S-GPT and BUN. Test drugs were orally administered once a day for two days. One hour after the final administration of the compounds of interest, the rats were anesthetized.
As an anticoagulant, sodium citrate was used. The number of platelets in the blood was measured by use of a platelet counter. Anticoagulant-treated blood was centrifuged at 1,500×g for 10 min and the plasma was obtained for testing.
In order to obtain a prothrombin time (PT), 100 μl of the plasma was added with 50 μl of a thromboplastin reagent (Sigma, U.S.A.) and a clotting time was measured by use of a fibrometer (Becton Dickinson Co., Canada). Before mixing, the plasma and thromboplastin reagent were pre-incubated at 37° C. for 3 min and 5 min, respectively.
For measurement of the aPTT, 100 μl of the plasma was incubated at 37° C. for 3 min and added with 100 μl of an activated partial thromboplastin time reagent (Sigma U.S.A.) and 100 μl of 0.02 M CaCl2 and a clotting time was measured by use of a fibrometer. Before addition, the reagent was pre-incubated at 37° C. for 1 min while CaCl2 was pre-warmed at 37° C.
To determine the fibrinogen level, first, 20 μl of the plasma was mixed with 180 μl of a buffer and incubated at 37° C. for 2 min. To this solution was added 100 μl of a thrombin reagent (Sigma U.S.A.), followed by measuring a clotting time. Then, the fibrinogen level was determined from a calibration curve obtained with a fibrinogen reference.
The FDP level was determined by use of the Thrombo-Wellcotest kit (Murex Biotech Limit, British). To this end, first, each blood sample (non-citrated) was mixed well with a soybean trypsin inhibitor and Bothrops atrox venom and incubated at 37° C. for 30 min. After centrifugation at 1,500×g for 10 min twice, the supernatant serum was diluted with a glycine saline buffer. 50 μl of the diluted serum was mixed with a drop of a latex suspension on a test slide glass and spread uniformly. The slide was placed in a shaker for 2 min and observed for agglutination. The concentration of FDP was determined semi-quantitatively as follows: with 1:0 dilution (−):0 μg/ml, (+):1 μg/ml, (++):2 μg/ml; with 1:1 dilution, (+):3 μg/ml, (++) :4 μg/ml; with 1:2 dilution (+):5 μg/ml, (++):6 μg/ml, etc.
For the assay of S-GOT, S-GPT and BUN, diagnostic kits (Boehringer Mannheim; AST kit for S-GOT, ALT kit for S-GPT, and urea kit for BUN) were used, together with an automatic biochemical analyzer (Hitachi 747), with the help of Green Cross Reference Lab., Korea.
In detail, after oral administration of higenamine or the compounds of Chemical Formulas 1 and 2, LPS (20 mg/kg) was injected into rats over a 3 hour period to cause DIC and MOF. In order to examine the improvement in the indices for DIC and MOF, these test animals were compared with a control which was provided with LPS only.

In another data set the target is α-receptor. The experiment in a line: Binding affinity to α-adrenoceptor, [3H]prazosin, rat cerebral cortical membrane. As to conditions: [3H]prazosin 200 pM, 25° C., 30 min, read-out: Dissociation constant Ki (M) for cerebral α-receptor of rat. On the procedure: For this, the cerebral cortex obtained from rats (Sprague-Dawley, 250±20 g; unless particularly mentioned, the same rats were used in the following experiments) was homogeneously mixed with a 20× buffer (50 mM Tris, 5 mM MgSO4, 1 mM EDTA, 1 mM ascorbic acid, pH 7.7) and then, centrifuged three times at 35,000×g for 15 min and the pellet was stored at −70° C. A solution of 5 mg of the pellet in 1 ml of the buffer was incubated, along with [^3H]prazosin (200 pM) and samples, at 25° C. for 30 min followed by adding 10 ml of a buffer (50 mM Tris, pH 7.7) to quench the binding reaction. The resulting solution was filtered through a Whatman GF/C glass microfiber filter which was then shaken for 2 hours while being completely submerged in a scintillation cocktail. The radioactivity was measured using a scintillation counter (Beckman, LS6500)

Data set [2] has as its system NO synthesis in macrophages (RAW 264.7 cells). The experiment in a line: Suppression of LPS- and IFN-γ-induced NO synthesis in macrophage (nitrite, Griess reagent). The format is cell-based. As to conditions: 18 hours, control 8, LPS + IFN-γ alone 57. On the procedure: In a DMEM medium supplemented with thermally treated 10% fetal calf serum, penicillin (100 U/ml) and streptomycin ([…]), macrophages (RAW 264.7 cells) were cultured to be confluent in a CO2 incubator. After being transferred to a serum-free DMEM medium, the cells were cultured for additional 24 hours and then, further for 18 hours in the presence of LPS (100 ng/ml) and IFN-γ, and either of the compounds of Chemical Formulas 1 and 2 (0, 1, 10, and 100:μM). The amount of the NO synthesized was measured indirectly through the amount of nitrite, an oxidation product of NO. To this end, the nitrite was subjected to color reaction with the Griess reagent (0.1% naphthylethylenediamine dihydrochloride, 1% sulphanilamide, 5% phosphate solution) and its absorbance at 550 nm was measured by a spectrophotometer.

Usually LD50 stands for the dose expected to kill half of the subjects tested. Low values mean greater toxicity, high ones lower toxicity. The term IC50 denotes the midpoint of a concentration-inhibition curve. Read a high IC50 as lower potency. Broadly, the Ki is a dissociation constant, usually derived from enzyme kinetics or from competition with a known ligand. As to `Oc1cc2c(cc1O)C(Cc1cccc3ccccc13)NCC2` (stereo not drawn) [Compound 1, 1-α-naphthylmethyl-6,7-dihydroxy-1,2,3,4-tetrahydroisoquinoline], the LD50 in data set [1] amounted to 290 mg/kg. In the data set with Rat thoracic aorta, this compound registered a 50% inhibitory concentration (IC50) of 2.75 µM. Also, in the data set on LPS-induced DIC and MOF, the “number of platelets in blood” value is “increased”, the “prothrombin time (PT)” value is recorded as “shortened”, the “activated partial thromboplastin time (aPTT)” value is “shortened” and the “fibrinogen level in blood” value is “increased”. Besides, in the data set with LPS-induced DIC and MOF, the “FDP level in blood” value is reported as “decreased”, the “S-GOT level in blood” value was “reduction”, the “S-GPT level in blood” value is given as “reduction” and the “BUN level in blood” value was “reduction”. Besides, at α-receptor, the Ki was determined as 2.7e-07 M. For the same compound, in data set [2] (compound 1 μM + LPS + IFN-γ), the “Concentration of Nitrite” value was found to be 30 ± 2.9 µM. Further, the “Concentration of Nitrite” value in data set [2] (compound 10 μM + LPS + IFN-γ) worked out at 25 ± 3.4 µM. Further, in data set [2] (compound 100 μM + LPS + IFN-γ), the “Concentration of Nitrite” value stood at 9 ± 3.0 µM.
Regarding `Oc1cc2c(cc1O)C(Cc1ccc3ccccc3c1)NCC2` (stereo not drawn) [Compound 2, 1-β-naphthylmethyl-6,7-dihydroxy-1,2,3,4-tetrahydroisoquinoline], the LD50 in data set [1] worked out at 439 mg/kg. Moreover, the IC50 in the data set with Rat thoracic aorta amounted to 2.81 µM. In the data set on LPS-induced DIC and MOF, the “number of platelets in blood” value is “increased”, the “prothrombin time (PT)” value is given as “shortened”, the “activated partial thromboplastin time (aPTT)” value is listed as “shortened” and the “fibrinogen level in blood” value is on record as “increased”. In the data set with LPS-induced DIC and MOF, the “FDP level in blood” value was “decreased”, the “S-GOT level in blood” value is “reduction”, the “S-GPT level in blood” value is “reduction” and the “BUN level in blood” value is listed as “reduction”. On α-receptor, the Ki worked out at 1.5e-07 M. The “Concentration of Nitrite” value in data set [2] (compound 1 μM + LPS + IFN-γ) turned out to be 34 ± 3.1 µM. In addition, the “Concentration of Nitrite” value in data set [2] (compound 10 μM + LPS + IFN-γ) is 22 ± 2.8 µM. Also, in data set [2] (compound 100 μM + LPS + IFN-γ), the “Concentration of Nitrite” value turned out to be 11 ± 2.0 µM.
In turn, `Oc1ccc(CC2NCCc3cc(O)c(O)cc32)cc1` (centres unmarked) [Higenamine, reference compound] had an IC50 in the data set with Rat thoracic aorta of 1.02 µM. Besides, in the data set with LPS-induced DIC and MOF, the “number of platelets in blood” value is reported as “increased”, the “prothrombin time (PT)” value is recorded as “shortened”, the “activated partial thromboplastin time (aPTT)” value is “shortened” and the “fibrinogen level in blood” value is recorded as “increased”. In the data set with LPS-induced DIC and MOF, the “FDP level in blood” value is “decreased”, the “S-GOT level in blood” value is recorded as “reduction”, the “S-GPT level in blood” value is “reduction” and the “BUN level in blood” value is “reduction”. The Ki on α-receptor is 1.26e-06 M.
